Test results as given in the NIST ThermoML archive (doi:10.1021/je301353z).
± gives the expanded uncertainty stated by the source.

Experiments:
[1] = 101.33 kPa, Liquid; for speed of sound: Sing-around technique in a fixed-path interferometer; for mass density: Vibrating tube method
[2] = molar heat capacity at constant pressure; conditions: 101.33 kPa, Liquid, Small sample (50 mg) DSC

Compound | speed of sound ([1]; 293.15 K) | mass density ([1]; 293.15 K) | speed of sound ([1]; 298.15 K) | mass density ([1]; 298.15 K) | speed of sound ([1]; 303.15 K) | mass density ([1]; 303.15 K) | speed of sound ([1]; 308.15 K) | mass density ([1]; 308.15 K) | molar heat capacity at constant pressure ([2]; 293.15 K) | molar heat capacity at constant pressure ([2]; 298.15 K) | molar heat capacity at constant pressure ([2]; 303.15 K) | molar heat capacity at constant pressure ([2]; 308.15 K)
c1ccncc1 [pyridine] | 1442 ± 1.2 m/s | 983.195 ± 1 kg/m3 | 1417.8 ± 1.2 m/s | 978.252 ± 1 kg/m3 | 1398 ± 1.2 m/s | 973.228 ± 1 kg/m3 | 1377.1 ± 1.2 m/s | 968.171 ± 1 kg/m3 | 130.49 ± 2 J/K/mol | 131.74 ± 2 J/K/mol | 132.71 ± 2.1 J/K/mol | 133.82 ± 2.1 J/K/mol
CN1CCCC1=O [N-methylpyrrolidone] | 1565.5 ± 1.3 m/s | 1033.23 ± 1 kg/m3 | 1546 ± 1.2 m/s | 1028.23 ± 1 kg/m3 | 1527.2 ± 1.2 m/s | 1023.46 ± 1 kg/m3 | 1507.4 ± 1.2 m/s | 1018.66 ± 1 kg/m3 | 165.44 ± 2.6 J/K/mol | 166.22 ± 2.6 J/K/mol | 166.92 ± 2.6 J/K/mol | 167.21 ± 2.6 J/K/mol
O=C1CCCN1 [2-pyrrolidinone] | 1650.1 ± 1.3 m/s | 1111.28 ± 1 kg/m3 | 1633.9 ± 1.3 m/s | 1107.15 ± 1 kg/m3 | 1617.1 ± 1.3 m/s | 1103.02 ± 1 kg/m3 | 1601.8 ± 1.3 m/s | 1098.9 ± 1 kg/m3 | 168.36 ± 2.6 J/K/mol | 169.55 ± 2.6 J/K/mol | 171.18 ± 2.6 J/K/mol | 172.37 ± 2.7 J/K/mol
CCn1cc[n+](C)c1.F[B-](F)(F)F [1-ethyl-3-methylimidazolium tetrafluoroborate] | 1631 ± 2.1 m/s | 1283.89 ± 1.7 kg/m3 | 1619.4 ± 2.1 m/s | 1279.91 ± 1.7 kg/m3 | 1607.6 ± 2.1 m/s | 1276.26 ± 1.7 kg/m3 | 1596.3 ± 2.1 m/s | 1272.07 ± 1.7 kg/m3 | 303.41 ± 4.7 J/K/mol | 305.12 ± 4.7 J/K/mol | 306.81 ± 4.8 J/K/mol | 308.58 ± 4.8 J/K/mol
